This is an account of results in US20040110745A1, “Therapeutic chroman compounds” (priority 2001, published 2004).

The subject of the first data set is guinea pigs. Kind of data set: learned helplessness assay for antidepressant/antianxiety activity. Format: in vivo. The settings on record: guinea pig. The source says: The utility of the compounds for example to treat depression may be shown via a learned helplessness test in guinea pigs, which is used extensively as correlative to antidepressant activity in humans. The learned helplessness test may be carried out as follows: Seventy male Hartley guinea pigs, each weighing about 350-425 gm are fed ad lib, and are housed under a 12-hour light/dark cycle. The procedure consists of two phases: The induction phase and the avoidance training phase. In the induction phase, subjects are placed into standard shuttle cages (20 L×16 W×21 centimeters H) which are fitted with a grid floor. Electrical stimulation (1.25 mA, 10 sec duration) is delivered to the floor of the cage every 90-sec during 1 hour daily sessions. Subjects have no opportunity to escape or to avoid shocks. Induction is conducted for 2 consecutive days.
In avoidance training, testing is also conducted in the shuttle cages, except that the subjects are not returned to the same chamber in which induction had occurred. Additionally, all cages are fitted with a partition with an arch in the center of the cage, through which animals can pass between the left and right halves of the cage. The procedure employed is a standard shuttle avoidance procedure in which a compound, conditioned stimulus (a 10-sec presentation of a tone and turning on of a lamp on the side of the cage that the guinea pig was occupying) serves to indicate presentation of electrical current to the floor of the cage. Shock is presented for a 5 sec period, 5 sec after initiation of the conditioned stimulus. Entry into the opposite side of the shuttle cage via the arched partition prior to shock onset results in the end of the trial (avoidance response). If shock is delivered, entry into the opposite side of the cage results in termination of the shock and CS (escape). Reversal of learned helplessness in the induction subjects correlates to antidepressant activity of the test compound.
Avoidance training, 45-min in duration, is conducted on 2 consecutive days, beginning 48 hr after the final induction session. Seventy subjects are assigned to 1 of 6 groups of 11-12 animals. The groups are as follows:
Groups 2-6 are given induction and avoidance training sessions. Injections are administered immediately following induction sessions and 1 hour prior to avoidance training sessions. A second injection is administered 7-8 hours following the first injection, for a total of 9 injections administered over 5 days. No injections are administered following the final avoidance training session.
Compounds of the present invention may be administered in a volume of 1 mL/kg bwt. Imipramine is dissolved in DI water. The compounds are dissolved in DI water, to which was added a few drops of lactic acid (pH 5.5). […]
For the molecule `COc1cc(N2CCN(C)CC2)c2oc(C(=O)Nc3ccc(N4CCOCC4)cc3)cc(=O)c2c1` [Example 31, 6-Methoxy-8-(4-methyl-piperazin-1-yl)-4-oxo-4H-chromene-2-carboxylic acid (4-morpholin-4-yl-phenyl)-amide], the “activity in the learned helplessness assay” value is “demonstrate activity”. The same measure, in the same setting: the value for `CCC(=O)N1CCN(c2ccc(NC(=O)c3cc(=O)c4cc(OC)cc(N5CCN(C)CC5)c4o3)cc2)CC1` [Example 44, 6-Methoxy-8-(4-methyl-piperazin-1-yl)-4-oxo-4H-chromene-2-carboxylic acid [4-(4-propionyl-piperazin-1-yl)-phenyl]-amide] was “demonstrate activity”; that for `CCS(=O)(=O)N1CCN(c2ccc(NC(=O)c3cc(=O)c4cc(F)cc(N5CCN(C)CC5)c4o3)cc2)CC1` [Example 71, 6-Fluoro-8-(4-methyl-piperazin-1-yl)-4-oxo-4H-chromene-2-carboxylic acid [4-(4-ethane sulfonyl-piperazin-1-yl)-phenyl]-amide] was “demonstrate activity”. Same read-out and setting: for `CCC(=O)N1CCN(c2ccc(NC(=O)c3cc(=O)c4cc(F)cc(N5CCN(C)CC5)c4o3)cc2)CC1` [Example 72, 6-flouro-8-(4-methyl-piperazin-1-yl)-4-oxo-4H-chromene-2-carboxylic acid [4-(4-propionyl-piperazin-1-yl)-phenyl]-amide] the value was “demonstrate activity”.

Tested on in the next data set: not given
Assay: not given
Details: not given
Broadly, the melting point is the temperature of the solid-liquid transition. In turn, `CN1CCN(c2cccc3c2OC(C(=O)Nc2ccc(N4CCOCC4)cc2)CC3)CC1` (racemic) [Example 75, racemic-8-(4-Methyl-piperazin-1-yl)-chroman-2-carboxylic acid (4-morpholin-4-yl-phenyl)-amide] gave a melting point of 215 to 216 °C. `CN1CCN(c2cccc3c2OC(C(=O)Nc2ccc(N4CCOCC4)cc2)CC3=O)CC1` (racemic) [Example 78, racemic-8-(4-methyl-piperazin-1-yl)-4-oxo-chroman-2-carboxylic acid (4-morpholin-4-yl-phenyl)-amide]: the melting point is 215 to 216 °C. The same measure, in the same setting: for `CN1CCN(c2cccc3c2OC(C(=O)Nc2ccc(N4CCOCC4)cc2)CC3=O)CC1` (single isomer, unassigned) [Example 79, 8-(4-Methyl-piperazin-1-yl)-4-oxo-chroman-2-carboxylic acid (4-morpholin-4-yl-phenyl)-amide] the value was 216 °C (dec.); for `CN1CCN(c2cccc3c2OC(C(=O)Nc2ccc(N4CCOCC4)cc2)CC3=O)CC1` (single isomer, unassigned) [Example 80, 8-(4-Methyl-piperazin-1-yl)-4-oxo-chroman-2-carboxylic acid (4-morpholin-4-yl-phenyl)-amide], 215 °C (dec.); for `CN1CCN(c2cccc3c2OC(C(=O)Nc2ccc(N4CCOCC4)cc2)CC3)CC1` (single isomer, unassigned; (+)) [Example 76, (+)-8-(4Methyl-piperazin-1-yl)-chroman-2-carboxylic acid (4-morpholin-4-yl-phenyl)-amide], 206 to 207 °C. Turning to `CN1CCN(c2cccc3c2OC(C(=O)Nc2ccc(N4CCOCC4)cc2)CC3)CC1` (single isomer, unassigned; (-)) [Example 77, (−)-8-(4-Methyl-piperazin-1-yl)-chroman-2-carboxylic acid (4-morpholin-4-yl-phenyl)-amide], the melting point lay in the range of 205.5 to 207 °C. On the same count and under the same terms, for `CN1CCN(c2cccc3c(=O)cc(C(=O)Nc4ccc(N5CCOCC5)cc4)oc23)CC1` [Example 1, 8-(4-methyl-1-piperazinyl)-N-[4-(4-morpholinyl)phenyl]-4-Oxo-4H-chromene-2-carboxamide] the value was 217 to 218 °C (dec.); for `CN1CCN(c2cccc3c(=O)cc(C(=O)Nc4ccc(N5CCOCC5)cc4O)oc23)CC1` [Example 22, 8-(4-Methyl-piperazin-1-yl)-4-oxo-4H-chromene-2-carboxylic acid (2-hydroxy-4-morpholin-4-yl-phenyl)-amide], 248.4 to 249.6 °C; for `CN1CCN(c2cccc3c(=O)cc(C(=O)N(C)c4ccc(N5CCOCC5)cc4)oc23)CC1` [Example 25, 8-(4-Methylpiperazin-1-yl)-4-oxo-4H-chromene-2-carboxylic acid methyl-(4-morpholin-4-yl-phenyl)amide], 245 to 246.8 °C. For `COc1cc(N2CCN(C)CC2)c2oc(C(=O)Nc3ccc(N4CCOCC4)cc3)cc(=O)c2c1` [Example 31, 6-Methoxy-8-(4-methyl-piperazin-1-yl)-4-oxo-4H-chromene-2-carboxylic acid (4-morpholin-4-yl-phenyl)-amide], the melting point was in the range of 234 to 236 °C.

In turn, `COc1cc(N2CCN(C)CC2)c2oc(C(=O)Nc3ccc(N4CCN(C(=O)CCO)CC4)cc3)cc(=O)c2c1` [Example 68, 6-Methoxy-8-(4-methyl-piperazin-1-yl)-4-oxo-4H-chromene-2-carboxylic acid {4-[4-(3-hydroxy-propanoyl)-piperazin-1-yl]-phenyl}-amide] showed a melting point of 195 to 197 °C. Molecule `CCS(=O)(=O)N1CCN(c2ccc(NC(=O)c3cc(=O)c4cc(F)cc(N5CCN(C)CC5)c4o3)cc2)CC1` [Example 71, 6-Fluoro-8-(4-methyl-piperazin-1-yl)-4-oxo-4H-chromene-2-carboxylic acid [4-(4-ethane sulfonyl-piperazin-1-yl)-phenyl]-amide] displayed a melting point of 233 to 234 °C. `CN1CCN(c2cc(F)cc3c(=O)cc(C(=O)Nc4ccc(N5CCN(C(=O)CCO)CC5)cc4)oc23)CC1` [Example 73, 6-Fluoro-8-(4-methyl-piperazin-1-yl)-4-oxo-4H-chromene-2-carboxylic acid {4-[4-(3-hydroxy-propanoyl)-piperazin-1-yl]-phenyl}-amide] registered a melting point of 195 to 199 °C. `CCNC(=O)N1CCN(c2ccc(NC(=O)c3cc(=O)c4cc(F)cc(N5CCN(C)CC5)c4o3)cc2)CC1` [Example 81, 4-[4-({1-[6-Fluoro-8-(4-methyl-piperazin-1-yl)-4-oxo-4H-chromen-2-yl]-methanoyl}-amino)-phenyl]-piperazine-1-carboxylic acid Ethylamide] had a melting point of 236 to 238 °C.
